Source: article PMC6862080, “Blood Compatibility—An Important but Often Forgotten Aspect of the Characterization of Antimicrobial Peptides for Clinical Application” (International Journal of Molecular Sciences, 2019)

How the values were obtained:
LPS from E. coli = assay: Endotoxin inactivation in human serum, chromogenic LAL test (E. coli LPS); format: biochemical; details: 500 ng/mL peptide, 5 ng/mL LPS, n = 3
Experimental: (§1) The LPS neutralization study in serum was conducted using a chromogenic Limulus Amebocyte Lysate (LAL) test (Charles River Laboratories, MA, USA). The LAL test is the most established method for quantifying LPS. This method uses amebocyte lysate from Limulus polyphemus, wherein the presence of LPS triggers a defense mechanism that induces coagulation. The LAL test is used successfully for detection of LPS in a wide variety of industrial, pharmaceutical, and research applications, such as water supplies, parenteral fluids, drugs for intravenous administration, and certain biologic fluids (e.g., cerebrospinal fluid). Therefore, serum, which was obtained from freshly drawn blood, was spiked with 500 ng/mL AMPs, PMB or LL-37 before adding 5 ng/mL LPS from E. coli or P. aeruginosa. As positive and negative controls, native serum with and without LPS was used, respectively. Endotoxin activity was measured using the LAL assay according to the manufacturer’s specifications.

LPS from P. aeruginosa = assay: Endotoxin inactivation in human serum, chromogenic LAL test (P. aeruginosa LPS); format: biochemical; details: 500 ng/mL peptide, 5 ng/mL LPS, n = 3
Experimental: as §1

E. coli (ATCC 11303) = assay: microbe, parasite or virus in culture; format: cell-based; details: DIN 58940-8, Müller-Hinton broth, overnight 37 °C, turbidity 620 nm
S. aureus (ATCC 12600) = assay: microbe, parasite or virus in culture; format: cell-based; details: DIN 58940-8, Müller-Hinton broth, overnight 37 °C, turbidity 620 nm
E. coli and S. aureus = assay: Scanning electron microscopy of bacterial cell wall damage; format: cell-based; details: 128 μg/mL, overnight culture at 37 °C, 2 × 10^5–8 × 10^5 CFU/mL
Experimental: In order to verify and to visualize the impact of AMPs on the bacterial membrane, electron microscopy was conducted. Therefore, bacterial suspensions of E. coli and S. aureus with a concentration of 2 × 10^5–8 × 10^5 CFU/mL were incubated with 128 μg/mL of one AMP (LF11-322-C8) and PMB in a microplate over night at 37 °C. After overnight culture, the bacteria were prepared for SEM. To achieve this, the bacteria suspensions were filtered through a sterile filter (Swinnex filter holders, Merck Millipore, Burlington, MA, USA). The filters with the collected bacteria were than washed with PBS (10 mM, pH 7.2) and fixed with a 2.5% glutaraldehyde solution (Carl Roth, Karlsruhe, Deutschland). The fixed specimens were gradually dehydrated by increasing ethanol solutions (10% to 100%) and sputtered with gold (Q150R ES Sputter Coater, Quorum Technologies Ltd., East Sussex, UK) prior to examination with a scanning electron microscope (FlexSEM 1000, Hitachi, Tokyo, Japan).

erythrocyte membranes [1] = assay: Hemolysis in whole blood (Kahn method); format: cell-based, human; details: citrate anticoagulated whole blood, 60 min 37 °C, Kahn method, n = 3, control 3.7 ± 1.9
Experimental: (§2) Hemolysis was tested with fresh citrate anticoagulated blood from healthy volunteers as well as with blood cells which were suspended in phosphate buffered saline (10 mM pH 7.4). Afterwards, 100 μL AMP solution was added to 500 μL blood to finally achieve AMP concentrations of 8, 32, and 128 μg/mL. As the negative and positive control, 100 μL PBS buffer and 100 μL 12% Triton-X buffer was added to 500 μL blood, respectively. After incubation on an orbital shaker for 60 min at 37 °C, the cells were removed by centrifugation and 100 μL of the supernatant were transferred to a 96 well microplate for hemolysis measurement. The hemolysis was calculated from the extinction at the wavelengths 562, 578, and 598 nm with a Synergy 2 microplate reader (BioTek, Winooski, VT, USA) according to the method published by Kahn.

erythrocyte membranes [2] = assay: Hemolysis in RBC suspended in PBS (Kahn method); format: cell-based, human; details: 60 min 37 °C, Kahn method, n = 3, control 8.5 ± 4.7
Experimental: as §2

plasmatic coagulation [3] = assay: Activation of the clotting cascade in heparinized plasma; details: heparinized (0.5 IU/mL) plasma, 128 μg/mL, 37 °C, 120 min, turbidity at 600 nm
Experimental: (§3) Plasma spiked with MES buffer without AMP was used as the negative control. […] Samples were incubated at 37 °C for 120 min. Coagulation was determined by turbidity measurement at 600 nm using a well plate reader.

plasmatic coagulation [4] = assay: Activation of the clotting cascade in citrated plasma; details: citrated (17 mM) plasma, 128 μg/mL, 37 °C, 120 min, turbidity at 600 nm
Experimental: as §3

plasmatic coagulation [5] = assay: Clotting batch test in citrate plasma; format: biochemical, human; details: citrate plasma, 37 °C, 60 min, turbidity 600 nm, fibrinogen and D-Dimer; also: key: −: no clotting observed, no D-dimers and normal fibrinogen level; +: clotting observed, high D-dimer level, no detectable fibrinogen serum level
Experimental: Since the acylated LF11-322 peptides cause plasmatic coagulation of citrate anticoagulated plasma, separate clotting experiments were performed with this peptide group. The aim was to check whether the coagulation activation is dependent on the AMP concentration and on the acyl chain length. […] Plasma without additives served as the negative control, whereas plasma spiked with CaCl2/MgCl2 (500/250 mM) solution to restore the physiological calcium and magnesium level in plasma was used as the positive control. Incubation was performed at 37 °C for 60 min. […] In order to ensure that the measured turbidity of the plasma is caused by fibrin formation, the fibrinogen and D-Dimer concentrations were additionally determined. During plasmatic clotting, the fibrinogen level decreases and the D-Dimer level in serum increases. Both were analyzed on a Sysmex CA560 with the corresponding reagents (Siemens Healthineers, Erlangen, Germany).

platelets = assay: SEM imaging of platelet morphology in PRP; format: cell-based, human; details: 128 μg/mL, 2 h, 37 °C
Experimental: Since it was observed that some AMPs are able to activate the plasmatic coagulation system of heparinized and citrate anticoagulated blood, the influence of this peptides on platelets was investigated. For this purpose, fresh heparinized and citrated blood were collected from three donors. The blood was centrifuged at 500 g for 5 min and platelet rich plasma (PRP) was obtained. The PRP was incubated at 37 °C for 2 h with 128 μg/mL AMP, PMB, and LL-37. PRP without any additives served as the control. After incubation, the platelet number was determined by a Sysmex Automated Hematology Analyzer KX-21-N (Kobe, Japan). In addition, the PRP samples were prepared for SEM to visualize the morphology of the thrombocytes. After incubation, 10 μL PRP were diluted with 990 μL PBS (0.01 M) and filtered through a 0.2 μm membrane (Membrane Filter Isopore 0.2 μm, Merck, Darmstadt, Germany). The platelets were retained on the membrane, washed with 1 mL PBS, and fixed with 1 mL glutaraldehyde solution (2.5% glutaraldehyde in physiological saline solution). After an incubation time of 60 min, the samples were dehydrated using a series of ethanol (30%, 50%, 60%, 70%, 80%, 90%, and 100%). Afterwards the samples were dried overnight at RT, sputtered with gold and visualized with a scanning electron microscope (FLEXSem 1000, Hitachi, Japan).

[6] = tested on: LPS-stimulated leukocytes; details: whole blood, PMB serum level between 100 to 200 ng; cited from earlier work
Experimental: Past studies have shown that a PMB serum level between 100 to 200 ng reduces the cytokine secretion of LPS-stimulated leukocytes up to 90% in whole blood. PMB directly interacts with the conserved lipid A region of the LPS molecule. […] In this study, it was tested whether the lactoferrin based peptides are able to form a complex with LPS similar to PMB, which would lead to a reduction of the inflammatory effect of LPS. The results (Figure 3) indicate that in c ...

[7] = PBS pH 7.4, inoculum 2 × 10^5–8 × 10^5 CFU/mL

Polymyxin B [PMB, reference compound]
Reduction of endotoxin activity of E. coli LPS (LPS from E. coli): 63 ± 7% | Reduction of endotoxin activity of P. aeruginosa LPS (LPS from P. aeruginosa): 74 ± 7% | Minimal Inhibitory Concentration, E. coli, 4% HSA (E. coli (ATCC 11303); 4% human serum albumin): 4 µg/mL | Minimal Inhibitory Concentration, E. coli, PBS + heparin (E. coli (ATCC 11303); PBS containing 5 IU/mL heparin): 4 µg/mL | Minimal Inhibitory Concentration, E. coli, PBS (E. coli (ATCC 11303); [7]): 2 µg/mL | Minimal Inhibitory Concentration, S. aureus, 4% HSA (S. aureus (ATCC 12600); 4% human serum albumin): 64 µg/mL | Minimal Inhibitory Concentration, S. aureus, PBS + heparin (S. aureus (ATCC 12600); PBS containing 5 IU/mL heparin): > 128 µg/mL | Minimal Inhibitory Concentration, S. aureus, PBS (S. aureus (ATCC 12600); [7]): 8 µg/mL | Lysis of bacteria cells seen by SEM (in words) (E. coli and S. aureus): not able to lyse S. aureus cells | Free Hemoglobin, BLOOD, 8 μg/mL (erythrocyte membranes [1]; peptide conc. 8 μg/mL): 3.5 ± 2.8 mg/dL | Free Hemoglobin, BLOOD, 32 μg/mL (erythrocyte membranes [1]; peptide conc. 32 μg/mL): 3.7 ± 1.4 mg/dL | Free Hemoglobin, BLOOD, 128 μg/mL (erythrocyte membranes [1]; peptide conc. 128 μg/mL): 2.6 ± 3.9 mg/dL | Free Hemoglobin, RBC in PBS, 128 μg/mL (erythrocyte membranes [2]; blood cells suspended in PBS 10 mM pH 7.4, highest peptide conc.): 1.9 ± 0.2 mg/dL | Free Hemoglobin, RBC in PBS, 8 μg/mL (erythrocyte membranes [2]; blood cells suspended in PBS 10 mM pH 7.4, peptide conc. 8 μg/mL): 14.9 ± 3.1 mg/dL | Free Hemoglobin, RBC in PBS, 32 μg/mL (erythrocyte membranes [2]; blood cells suspended in PBS 10 mM pH 7.4, peptide conc. 32 μg/mL): 18.9 ± 11.2 mg/dL | Plasma clot, Heparin Plasma (plasmatic coagulation [3]): − | Plasma clot, Citrated Plasma (plasmatic coagulation [4]): − | Clotting of citrate plasma, Peptide Concentration 8 μg/mL (plasmatic coagulation [5]): − | Clotting of citrate plasma, Peptide Concentration 32 μg/mL (plasmatic coagulation [5]): − | Clotting of citrate plasma, Peptide Concentration 128 μg/mL (plasmatic coagulation [5]): − | Clotting of citrate plasma, Peptide Concentration 256 μg/mL (plasmatic coagulation [5]): − | Platelet morphology by SEM, citrate anticoagulated PRP (in words) (platelets): morphologically intact platelets | Reduction of cytokine secretion of LPS-stimulated leukocytes [6]: up to 90%
